Consider 34 compounds from patent US20090312349A1, “ANTI-INFLAMMATORY MEDICAMENTS” (priority 2004, published 2009).

pIC50: −log10 of the molar value.

In the first experiment the target is T1, phospho p-38 alpha kinase (Homo sapiens, UniProt Q16539).
T1 construct: purchased Panvera
T1 sequence (Q16539 whole entry): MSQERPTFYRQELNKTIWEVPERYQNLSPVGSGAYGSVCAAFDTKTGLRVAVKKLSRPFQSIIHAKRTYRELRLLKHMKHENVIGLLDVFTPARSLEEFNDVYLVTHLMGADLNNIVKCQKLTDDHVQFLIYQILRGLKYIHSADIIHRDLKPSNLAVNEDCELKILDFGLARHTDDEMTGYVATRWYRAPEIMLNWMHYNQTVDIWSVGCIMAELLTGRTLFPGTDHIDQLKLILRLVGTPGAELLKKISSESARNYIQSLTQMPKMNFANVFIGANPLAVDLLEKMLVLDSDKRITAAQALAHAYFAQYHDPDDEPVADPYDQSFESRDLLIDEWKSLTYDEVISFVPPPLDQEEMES
The experiment in a line: P-38 alpha kinase assay (spectrophotometric, pyruvate kinase/lactate dehydrogenase coupled). Type of experiment: biochemical. To be noted: Table 2; rates at […] to 2 h; read-out: IC50. How it is done:
In this assay, the oxidation of NADH was continuously measured spectrophometrically. […] The reaction was initiated by adding ATP. The absorption at 340 nm was monitored continuously for up to 4 hours at 30° C. on Polarstar Optima plate reader (BMG). The kinase activity (reaction rate) was calculated from the slope at the time frame from 1.5 h to 2 h.
For inhibition determinations, test compounds were incubated with the reaction mixture for ˜5 min before adding ATP to start the reaction. […] IC50 values were calculated from a series of % inhibition values determined at a range of concentrations of each inhibitor using Prism to process the data and fit inhibition curves. Generally, the rates obtained at the time frame of 1.5 h to 2 h were used for these calculations.
As to `CC(C)(C)c1cc(NC(=O)Nc2cccc3ccccc23)n(-c2cccc(CO)c2)n1` [Example D, 1-{3-t-butyl-1-[3-(hydroxymethyl)phenyl]-1H-pyrazol-5-yl}-3-(naphthalen-1-yl)urea], the pIC50 is 6.75.

Still in this experiment, the particulars now being: Table 3; rates at […] to 2 h; read-out: IC50.
`COc1cccc(-n2nc(C(C)(C)C)cc2NC(=O)Nc2ccc(F)cc2)c1` [Example 206, 1-(3-t-butyl-1-(3-methoxyphenyl)-1H-pyrazol-5-yl)-3-(4-fluorophenyl)urea]: the pIC50 was 7.89.
Same read-out and setting: to `CC(C)(C)c1cc(NC(=O)Nc2cccc(F)c2F)n(-c2ccc(CC(=O)O)cc2)n1` [Example 204, 2-(4-(3-t-butyl-5-(3-(2,3-difluorophenyl)ureido)-1H-pyrazol-1-yl)-phenyl)acetic acid] belongs 8.10.

The same experiment, now with this note: Table 5; @ 0.1 uM.
With `Cc1cc(NC(=O)Nc2cccc(Cl)c2Cl)n(-c2ccc(CO)cc2)n1` [Example 347, 1-(2,3-dichlorophenyl)-3-{1-[4-(hydroxymethyl)phenyl]-3-methyl-1H pyrazol-5-yl}urea], the “% @ concentration, uM” value is recorded as 8%.
As to `CCOC(=O)c1ccc(-n2nc(C)cc2NC(=O)Nc2cccc(Cl)c2Cl)cc1` [Example 346, ethyl 4-{5-[3-(2,3-dichlorophenyl)ureido]-3-methyl-1H-pyrazol-1-yl}benzoate], the “% @ concentration, uM” value came out at 19%.

Staying with this experiment, now noted: Table 5; @ 1 uM.
In the case of `Cc1cc(NC(=O)Nc2cccc(Cl)c2Cl)n(-c2ccc(CO)cc2)n1` [Example 347, 1-(2,3-dichlorophenyl)-3-{1-[4-(hydroxymethyl)phenyl]-3-methyl-1H pyrazol-5-yl}urea], the “% @ concentration, uM” value was found to be 31%.
Consider `CC(Cc1cccc(-n2nc(C(C)(C)C)cc2NC(=O)Nc2cccc(Cl)c2Cl)c1)C(=O)O` (stereo not shown) [Example 323, 3-(3-{3-t-butyl-5-[3-(2,3-dichlorophenyl)ureido]-1H-pyrazol-1-yl}-1-phenyl)-2-methylpropanoic acid], for which the “% @ concentration, uM” value is recorded as 9%.
On to `CCOC(=O)c1ccc(-n2nc(C)cc2NC(=O)Nc2cccc(Cl)c2Cl)cc1` [Example 346, ethyl 4-{5-[3-(2,3-dichlorophenyl)ureido]-3-methyl-1H-pyrazol-1-yl}benzoate], for which the “% @ concentration, uM” value was determined as 63%.

Still in this experiment, the particulars now being: Table 5; @ 10 uM.
Take `CC(Cc1cccc(-n2nc(C(C)(C)C)cc2NC(=O)Nc2cccc(Cl)c2Cl)c1)C(=O)O` (stereo not shown) [Example 323, 3-(3-{3-t-butyl-5-[3-(2,3-dichlorophenyl)ureido]-1H-pyrazol-1-yl}-1-phenyl)-2-methylpropanoic acid]: the “% @ concentration, uM” value is 51%.
Still for that read-out and setting: the same measure for `CC(Cc1ccc(-n2nc(C(C)(C)C)cc2NC(=O)Nc2cccc3ccccc23)cc1)C(=O)O` (stereo not shown) [Example 325, 3-(4-{3-t-butyl-5-[3-(naphthalen-1-yl)ureido]-1H-pyrazol-1-yl}phenyl)-2-methylpropanoic acid]: 54% @ 10; for `CC(C)(C)c1cc(NC(=O)Nc2cccc3ccccc23)n(-c2cccc(CO)c2)n1` [Example 367, 1-{3-t-butyl-1-[3-(hydroxymethyl)phenyl]-1H-pyrazol-5-yl)-3-(naphthalen-1-yl)-urea]: 85% @ 10; for `CCOC(=O)c1cccc(-n2nc(C(C)(C)C)cc2NC(=O)Nc2cccc3ccccc23)c1` [Example 366, ethyl 3-{3-t-butyl-5-[3-(naphthalen-1-yl)ureido]-1H-pyrazol-1-yl}benzoate]: 53% @ 10.
With `CC(C)(C)c1cc(NC(=O)Nc2cccc(F)c2F)n(-c2ccc(CO)cc2)n1` [Example 315, 1-{3-t-butyl-1-[4-(hydroxymethyl)phenyl]-1H-pyrazol-5-yl}-3-(2,3-difluoro-phenyl)urea], the “% @ concentration, uM” value was 54% @ 10.

Staying with this experiment, now noted: Table 5; assay not named; read-out: uM.
Regarding `CN(C)C(=O)NCc1cccc(-n2nc(C(C)(C)C)cc2NC(=O)Nc2ccc(Cl)cc2)c1` [Example 388, 1-{3-t-butyl-1-[3-(3,3-dimethylureidomethyl)phenyl]-1H-pyrazol-5-yl}-3-(4-chlorophenyl)urea], the IC50 stood at 1.65 µM.
As to `CCOC(=O)Cc1cccc(-n2nc(C(C)(C)C)cc2NC(=O)Nc2cccc3ccccc23)c1` [Example 319, ethyl 2-(3-{3-t-butyl-5-[3-(naphthalen-1-yl)ureido]-1H-pyrazol-1-yl}phenyl)acetate], the IC50 was determined as 0.32 µM.
Regarding `CCOC(=O)c1cccc(-n2nc(C(C)C)cc2NC(=O)Nc2cccc3ccccc23)c1` [Example 332, ethyl 3-(3-isopropyl-5-[3-(naphthalen-1-yl)ureido]-1H-pyrazol-1-yl)benzoate], the IC50 turned out to be 0.05 µM.
Regarding `CC(C)c1cc(NC(=O)Nc2cccc3ccccc23)n(-c2cccc(C(C)(C)O)c2)n1` [Example 333, 1-{1-[3-(2-hydroxypropan-2-yl)phenyl]-3-isopropyl-1H-pyrazol-5-yl}-3-(naphthalen-1-yl)urea], the IC50 stood at 2.44 µM.
As for `CCOC(=O)Cc1ccc(-n2nc(C(C)(C)C)cc2NC(=O)Nc2cccc3ccccc23)cc1` [Example 316, ethyl 2-(4-{3-t-butyl-5-[3-(naphthalen-1-yl)ureido]-1H-pyrazol-1-yl}phenyl)acetate], the IC50 came out at 0.42 µM.
In the case of `CCOC(=O)c1ccc(-n2nc(C(C)C)cc2NC(=O)Nc2ccc(Cl)cc2)cc1` [Example 334, ethyl 4-{5-[3-(4-chlorophenyl)ureido]-3-isopropyl-1H-pyrazol-1-yl}benzoate], the IC50 came to 2.2 µM.
In the case of `CCOC(=O)c1ccc(-n2nc(C)cc2NC(=O)Nc2ccc(Cl)cc2)cc1` [Example 344, ethyl 4-{5-[3-(4-chlorophenyl)ureido]-3-methyl-1H-pyrazol-1-yl}benzoate], the IC50 stood at 0.18 µM.
As for `CC(C)(C)c1cc(NC(=O)Nc2ccc(Cl)cc2)n(-c2cccc(CN3C(=O)C(=O)NS3(=O)=O)c2)n1` [Example 380, 1-{5-t-butyl-2-[3-(1,1,3,4-tetraoxo-1λ^6-[1,2,5]thiadiazolidin-2-ylmethyl)phenyl]-2H-pyrazol-3-yl}-3-(4-chlorophenyl)urea], the IC50 was determined as 2 µM.
Turning to `O=C(Nc1cccc(C(F)(F)F)c1)Nc1cc(-c2ccccc2)nn1-c1cccc(CO)c1` [Example 354, 1-{3-phenyl-1-[3-(hydroxymethyl)phenyl]-1H-pyrazol-5-yl}-3-(3-trifluoromethylphenyl)urea], the IC50 is 0.11 µM.
With `Cn1[nH]c(=O)n(Cc2cccc(-n3nc(C(C)(C)C)cc3NC(=O)Nc3cccc(Cl)c3Cl)c2)c1=O` [Example 408, 1-{5-t-butyl-2-[3-(1-methyl-3,5-dioxo-[1,2,4)triazolidin-4-ylmethyl)-phenyl]-2H-pyrazol-3-yl}-3-(2,3-dichloro-phenyl)-urea], the IC50 was determined as 0.116 µM.
Take `O=C(O)Cc1cccc(-n2nc(-c3ccccc3)cc2NC(=O)Nc2cccc(Cl)c2Cl)c1` [Example 430, 2-(3-(5-(3-(2,3-dichlorophenyl)ureido)-3-phenyl-1H-pyrazol-1-yl)phenyl)acetic acid]: the IC50 is 0.942 µM.
Turning to `CC(C)(C)c1cc(NC(=O)Nc2ccc(Cl)cc2)n(-c2ccc3c(c2)CNCC3)n1` [Example 407, 1-[3-t-butyl-1-(1,2,3,4-tetrahydroisoquinolin-7-yl)-1H-pyrazol-5-yl]-3-(4-chlorophenyl)urea], the IC50 is 0.0103 µM.
On the same count and under the same terms, the same measure for `CCOC(=O)CCc1cccc(-n2nc(-c3ccccc3)cc2NC(=O)Nc2ccc(Cl)cc2)c1` [Example 311, 3-(3-{5-[3-(4-chlorophenyl)-ureido]-3-phenyl-pyrazol-1-yl}-phenyl)-propionic acid ethyl ester]: 0.182 µM; for `CC(C)(C)c1cc(NC(=O)Nc2ccc(Cl)cc2)n(-c2cccc(CNC(=O)N3CCOCC3)c2)n1` [Example 386, 1-(3-t-butyl-1-{3-[(morpholine-4-carboxamido)methyl]phenyl}-1H-pyrazol-5-yl)-3-(4-chlorophenyl)urea]: 0.114 µM.
For `CC(Cc1cccc(-n2nc(-c3cccs3)cc2NC(=O)Nc2cccc(Cl)c2Cl)c1)C(=O)O` (stereo not shown) [Example 490, 3-(3-(5-(3-(2,3-dichlorophenyl)ureido)-3-(thiophen-2-yl)-1H-pyrazol-1-yl)phenyl)-2-methylpropanoic acid], the IC50 stood at 0.34 µM.
In the case of `CC(C)(C)c1cc(NC(=O)Nc2cccc(Cl)c2)n(-c2cccc(CO)c2)n1` [Example 303], the IC50 was 0.089 µM.
Consider `CCOC(=O)CCc1cccc(-n2nc(C)cc2NC(=O)Nc2ccc(Cl)cc2)c1` [Example 428, 3-(3-{5-[3-(4-chloro-phenyl)-ureido)-3-methyl-pyrazol-1-yl}-phenyl)-propionic acid ethyl ester], for which the IC50 is 0.14 µM.
In the case of `CCOC(=O)Cc1cccc(-n2nc(C(C)(C)C)cc2NC(=O)Nc2cccc(Cl)c2Cl)c1` [Example 321, ethyl 2-(3-{3-t-butyl-5-[3-(2,3-dichlorophenyl)ureido]-1H-pyrazol-1-yl}phenyl)acetate], the IC50 was determined as 0.52 µM.
The same measure, in the same setting: to `CC(C)(C)c1cc(NC(=O)Nc2ccc(Cl)cc2)n(-c2cccc(CO)c2)n1` [Example 376] belongs 0.48 µM; to `CC(C)(C)c1cc(NC(=O)Nc2ccc(Cl)cc2)n(-c2cccc(CN3C(=O)C(=O)N(c4ccccc4)C3=O)c2)n1` [Example 391, 1-{3-t-butyl-1-(3-[(2,4,5-trioxo-3-phenylimidazolidin-1-yl)methyl]phenyl)-1H-pyrazol-5-yl}-3-(4-chlorophenyl)urea], 0.91 µM; to `CCOC(=O)CCc1cccc(-n2nc(C(C)C)cc2NC(=O)Nc2ccc(Cl)cc2)c1` [Example 313, ethyl 3-(3-(5-(3-(4-chlorophenyl)ureido)-3-isopropyl-1H-pyrazol-1-yl)phenyl)propanoate], 0.25 µM.
For `COc1cccc(NC(=O)Nc2cc(-c3ccccc3)nn2-c2cccc(CO)c2)c1` [Example 355, 1-{3-phenyl-1-[3-(hydroxymethyl)phenyl]-1H-pyrazol-5-yl}-3-(3-methoxyphenyl)urea], the IC50 amounted to 0.042 µM.
On to `CCOC(=O)Cc1cccc(-n2nc(C(C)(C)C)cc2NC(=O)Nc2ccc(Cl)cc2)c1` [Example 320, ethyl 2-(3-{3-t-butyl-5-[3-(4-chlorophenyl)ureido]-1H-pyrazol-1-yl}phenyl)acetate], for which the IC50 amounted to 0.79 µM.
In the case of `CC(C)(C)c1cc(NC(=O)Nc2ccc(Cl)cc2)n(-c2ccc(O)cc2)n1` [Example 421, 1-(3-t-butyl-1-(4 hydroxyphenyl)-1H-pyrazol-5-yl)-3-(4-chlorophenyl)urea], the IC50 was found to be 0.0147 µM.

What is called pIC50 is the IC50 on a negative log10 scale, so that one unit is a factor of ten.
